PubChem BioAssay (NCI)
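Growth conditions: 96-well plates. Treatment: test compound, 48 hours, 5 concentrations. Analysis: linear interpolation between bracketing concentrations; unreached endpoints set to highest concentration. GI50 = concentration required for 50% inhibition of growth. The concentration for full growth arrest is given as TGI.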

What was measured:
Test in all cases: NCI tumour cell line growth inhibition, 48 h
A498 renal = test system: A498 renal
SNB-19 CNS = test system: SNB-19 CNS
SK-MEL-5 melanoma = test system: SK-MEL-5 melanoma
TK-10 renal = test system: TK-10 renal
HCT-15 colon = test system: HCT-15 colon
OVCAR-4 ovarian = test system: OVCAR-4 ovarian
SW-620 colon = test system: SW-620 colon
UACC-257 melanoma = test system: UACC-257 melanoma
NCI-H23 lung = test system: NCI-H23 lung
SR leukemia = test system: SR leukemia
U251 CNS = test system: U251 CNS
SK-MEL-28 melanoma = test system: SK-MEL-28 melanoma
KM12 colon = test system: KM12 colon
NCI-H460 lung = test system: NCI-H460 lung
COLO 205 colon = test system: COLO 205 colon
RXF 393 renal = test system: RXF 393 renal
HCT-116 colon = test system: HCT-116 colon
M14 melanoma = test system: M14 melanoma
PC-3 prostate = test system: PC-3 prostate
NCI-H226 lung = test system: NCI-H226 lung
LOX IMVI melanoma = test system: LOX IMVI melanoma
SNB-75 CNS = test system: SNB-75 CNS
HOP-92 NSCLC = test system: HOP-92 NSCLC
SF-295 CNS = test system: SF-295 CNS
UO-31 renal = test system: UO-31 renal
MCF7 breast = test system: MCF7 breast
SK-MEL-2 melanoma = test system: SK-MEL-2 melanoma
RPMI-8226 leukemia = test system: RPMI-8226 leukemia
HOP-62 NSCLC = test system: HOP-62 NSCLC
MDA-N = test system: MDA-N
NCI/ADR-RES ovarian = test system: NCI/ADR-RES ovarian
MDA-MB-435 = test system: MDA-MB-435
SN12C renal = test system: SN12C renal
CAKI-1 renal = test system: CAKI-1 renal
MALME-3M melanoma = test system: MALME-3M melanoma
BT-549 breast = test system: BT-549 breast
HT29 colon = test system: HT29 colon
HS 578T breast = test system: HS 578T breast
CCRF-CEM leukemia = test system: CCRF-CEM leukemia
MOLT-4 leukemia = test system: MOLT-4 leukemia
OVCAR-5 ovarian = test system: OVCAR-5 ovarian
MDA-MB-231 breast = test system: MDA-MB-231 breast
OVCAR-8 ovarian = test system: OVCAR-8 ovarian
OVCAR-3 ovarian = test system: OVCAR-3 ovarian
T-47D breast = test system: T-47D breast
DU-145 prostate = test system: DU-145 prostate
EKVX NSCLC = test system: EKVX NSCLC
SF-268 CNS = test system: SF-268 CNS
ACHN renal = test system: ACHN renal
HL-60(TB) leukemia = test system: HL-60(TB) leukemia
A549 NSCLC = test system: A549 NSCLC
786-0 renal = test system: 786-0 renal
SF-539 CNS = test system: SF-539 CNS
K-562 leukemia = test system: K-562 leukemia
SK-OV-3 ovarian = test system: SK-OV-3 ovarian
NCI-H522 lung = test system: NCI-H522 lung
UACC-62 melanoma = test system: UACC-62 melanoma
IGROV1 ovarian = test system: IGROV1 ovarian

`Nc1nc2c(ncn2C2C=CC(CO)O2)c(=O)[nH]1` (stereo not drawn) showed a TGI (A498 renal) greater than 100 µM, a TGI (SNB-19 CNS) greater than 100 µM and a TGI (SK-MEL-5 melanoma) greater than 100 µM. For the same compound, the TGI (TK-10 renal) was greater than 100 µM, the TGI (HCT-15 colon) was greater than 100 µM and the TGI (OVCAR-4 ovarian) was greater than 100 µM. The TGI (SW-620 colon) was greater than 100 µM, the TGI (UACC-257 melanoma) was greater than 100 µM and the TGI (NCI-H23 lung) was greater than 100 µM. It also gave a TGI (SR leukemia) greater than 100 µM, a TGI (U251 CNS) greater than 100 µM and a TGI (SK-MEL-28 melanoma) greater than 100 µM. For the same compound, the TGI (KM12 colon) was greater than 100 µM, the TGI (NCI-H460 lung) was greater than 100 µM and the TGI (COLO 205 colon) was greater than 100 µM. For the same compound, the TGI (RXF 393 renal) was greater than 100 µM, the TGI (HCT-116 colon) was greater than 100 µM and the TGI (M14 melanoma) was greater than 100 µM. The TGI (PC-3 prostate) was greater than 100 µM, the TGI (NCI-H226 lung) was greater than 100 µM and the TGI (LOX IMVI melanoma) was greater than 100 µM. It also gave a TGI (SNB-75 CNS) greater than 100 µM, a TGI (HOP-92 NSCLC) greater than 100 µM and a TGI (SF-295 CNS) greater than 100 µM. For the same compound, the TGI (UO-31 renal) was greater than 100 µM, the TGI (MCF7 breast) was greater than 100 µM and the TGI (SK-MEL-2 melanoma) was greater than 100 µM. For the same compound, the TGI (RPMI-8226 leukemia) was greater than 100 µM, the TGI (HOP-62 NSCLC) was greater than 100 µM and the TGI (MDA-N) was greater than 100 µM. The TGI (NCI/ADR-RES ovarian) was greater than 100 µM, the TGI (MDA-MB-435) was greater than 100 µM and the TGI (SN12C renal) was greater than 100 µM. For the same compound, the TGI (CAKI-1 renal) was greater than 100 µM, the TGI (MALME-3M melanoma) was greater than 100 µM and the TGI (BT-549 breast) was greater than 100 µM. It also gave a TGI (HT29 colon) greater than 100 µM, a TGI (HS 578T breast) greater than 100 µM and a TGI (CCRF-CEM leukemia) greater than 100 µM. The TGI (MOLT-4 leukemia) was greater than 100 µM, the TGI (OVCAR-5 ovarian) was greater than 100 µM and the TGI (MDA-MB-231 breast) was greater than 100 µM. It also gave a TGI (OVCAR-8 ovarian) greater than 100 µM, a TGI (OVCAR-3 ovarian) greater than 100 µM and a TGI (T-47D breast) greater than 100 µM. The TGI (DU-145 prostate) was greater than 100 µM.
Compound `CC(=O)Oc1cc(C)ccc1[C@]1(C)CC[C@H](C)/C1=C\Br` has a GI50 (A498 renal) of 5.2 µM, a TGI (A498 renal) of 17.1 µM and a GI50 (SNB-19 CNS) of 3.97 µM. The TGI (SNB-19 CNS) was 17.4 µM, the GI50 (SK-MEL-5 melanoma) was 3.32 µM and the TGI (SK-MEL-5 melanoma) was 11.5 µM. For the same compound, the GI50 (TK-10 renal) was 3.6 µM, the TGI (TK-10 renal) was 12.5 µM and the GI50 (HCT-15 colon) was 4.51 µM. The TGI (HCT-15 colon) was 19.2 µM, the GI50 (OVCAR-4 ovarian) was 2.87 µM and the TGI (OVCAR-4 ovarian) was 12.6 µM. It also gave a GI50 (SW-620 colon) of 5.31 µM, a TGI (SW-620 colon) of 17.1 µM and a GI50 (EKVX NSCLC) of 6.67 µM. It also gave a TGI (EKVX NSCLC) of 18.5 µM, a GI50 (SF-268 CNS) of 4.76 µM and a TGI (SF-268 CNS) of 17.9 µM. For the same compound, the GI50 (UACC-257 melanoma) was 8.28 µM, the TGI (UACC-257 melanoma) was 20.8 µM and the GI50 (NCI-H23 lung) was 6.54 µM. For the same compound, the TGI (NCI-H23 lung) was 20.3 µM, the GI50 (SR leukemia) was 2.72 µM and the TGI (SR leukemia) was 12.8 µM. It also gave a GI50 (U251 CNS) of 4.92 µM, a TGI (U251 CNS) of 16.6 µM and a GI50 (SK-MEL-28 melanoma) of 3.62 µM. For the same compound, the TGI (SK-MEL-28 melanoma) was 15.6 µM, the GI50 (KM12 colon) was 2.92 µM and the TGI (KM12 colon) was 12 µM. For the same compound, the GI50 (NCI-H460 lung) was 4.17 µM, the TGI (NCI-H460 lung) was 15.2 µM and the GI50 (ACHN renal) was 5.7 µM. The TGI (ACHN renal) was 20.1 µM, the GI50 (COLO 205 colon) was 2.3 µM and the TGI (COLO 205 colon) was 5.33 µM. The GI50 (HL-60(TB) leukemia) was 3.41 µM, the TGI (HL-60(TB) leukemia) was 15 µM and the GI50 (RXF 393 renal) was 3.86 µM. For the same compound, the TGI (RXF 393 renal) was 15.9 µM, the GI50 (HCT-116 colon) was 4.44 µM and the TGI (HCT-116 colon) was 18.8 µM. For the same compound, the GI50 (M14 melanoma) was 6.31 µM, the TGI (M14 melanoma) was 19.6 µM and the GI50 (PC-3 prostate) was 3.33 µM. The TGI (PC-3 prostate) was 12.3 µM, the GI50 (A549 NSCLC) was 4.98 µM and the TGI (A549 NSCLC) was 17.3 µM. For the same compound, the GI50 (786-0 renal) was 4.09 µM, the TGI (786-0 renal) was 14.3 µM and the GI50 (LOX IMVI melanoma) was 4.77 µM. It also gave a TGI (LOX IMVI melanoma) of 17.1 µM, a GI50 (HOP-92 NSCLC) of 2.03 µM and a TGI (HOP-92 NSCLC) of 12.9 µM. It also gave a GI50 (SF-295 CNS) of 3.96 µM, a TGI (SF-295 CNS) of 13.2 µM and a GI50 (UO-31 renal) of 8.43 µM. The TGI (UO-31 renal) was 34 µM, the GI50 (MCF7 breast) was 4.07 µM and the TGI (MCF7 breast) was 15.3 µM. For the same compound, the GI50 (SF-539 CNS) was 2.32 µM, the TGI (SF-539 CNS) was 5.1 µM and the GI50 (SK-MEL-2 melanoma) was 7.21 µM. It also gave a TGI (SK-MEL-2 melanoma) of 24.7 µM, a GI50 (K-562 leukemia) of 3.71 µM and a TGI (K-562 leukemia) of 11.4 µM. The GI50 (RPMI-8226 leukemia) was 2.71 µM, the TGI (RPMI-8226 leukemia) was 8.09 µM and the GI50 (SK-OV-3 ovarian) was 2.43 µM. For the same compound, the TGI (SK-OV-3 ovarian) was 7.65 µM, the GI50 (HOP-62 NSCLC) was 9.22 µM and the TGI (HOP-62 NSCLC) was 22.2 µM. It also gave a GI50 (MDA-N) of 2.36 µM, a TGI (MDA-N) of 7.16 µM and a GI50 (NCI/ADR-RES ovarian) of 2.68 µM. The TGI (NCI/ADR-RES ovarian) was 7.94 µM, the GI50 (MDA-MB-435) was 1.49 µM and the TGI (MDA-MB-435) was 3.89 µM. For the same compound, the GI50 (SN12C renal) was 9.24 µM, the TGI (SN12C renal) was 25.3 µM and the GI50 (CAKI-1 renal) was 3.53 µM. The TGI (CAKI-1 renal) was 14.3 µM, the GI50 (NCI-H522 lung) was 5.28 µM and the TGI (NCI-H522 lung) was 22.7 µM. For the same compound, the GI50 (MALME-3M melanoma) was 2.95 µM, the TGI (MALME-3M melanoma) was 10.2 µM and the GI50 (BT-549 breast) was 4.1 µM. The TGI (BT-549 breast) was 17.6 µM, the GI50 (HT29 colon) was 2.45 µM and the TGI (HT29 colon) was 5.06 µM. It also gave a GI50 (HS 578T breast) of 3.03 µM, a TGI (HS 578T breast) of 13.9 µM and a GI50 (CCRF-CEM leukemia) of 2.75 µM. The TGI (CCRF-CEM leukemia) was 10.1 µM, the GI50 (MOLT-4 leukemia) was 5.22 µM and the TGI (MOLT-4 leukemia) was 22.8 µM. The GI50 (OVCAR-5 ovarian) was 6.9 µM, the TGI (OVCAR-5 ovarian) was 19.5 µM and the GI50 (MDA-MB-231 breast) was 9.04 µM. The TGI (MDA-MB-231 breast) was 23.9 µM, the GI50 (UACC-62 melanoma) was 5.98 µM and the TGI (UACC-62 melanoma) was 19.7 µM. The GI50 (OVCAR-8 ovarian) was 5.05 µM, the TGI (OVCAR-8 ovarian) was 21 µM and the GI50 (OVCAR-3 ovarian) was 2.61 µM. For the same compound, the TGI (OVCAR-3 ovarian) was 7.16 µM, the GI50 (IGROV1 ovarian) was 7.6 µM and the TGI (IGROV1 ovarian) was 26.6 µM. The GI50 (T-47D breast) was 5.38 µM, the TGI (T-47D breast) was 23.4 µM and the GI50 (DU-145 prostate) was 4.87 µM. The TGI (DU-145 prostate) was 16.9 µM.
